#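 Compound exposure: 48 hours, 5 concentrations, 96-well plates. GI50: concentration for 50% inhibition of growth. Definition used: TGI = concentration required for complete inhibition of growth.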
# What was measured:
# Experiment in all cases: NCI-60 cell line screen, 48 h
# SF-539 CNS = tested on: SF-539 CNS
# K-562 leukemia = tested on: K-562 leukemia
# CCRF-CEM leukemia = tested on: CCRF-CEM leukemia
# HT29 colon = tested on: HT29 colon
# U251 CNS = tested on: U251 CNS
# A549 NSCLC = tested on: A549 NSCLC
# SNB-75 CNS = tested on: SNB-75 CNS
# MDA-MB-231 breast = tested on: MDA-MB-231 breast
# HCT-116 colon = tested on: HCT-116 colon
# DU-145 prostate = tested on: DU-145 prostate
# SF-295 CNS = tested on: SF-295 CNS
# NCI-H460 lung = tested on: NCI-H460 lung
# MDA-MB-435 = tested on: MDA-MB-435
# UACC-62 melanoma = tested on: UACC-62 melanoma
# EKVX NSCLC = tested on: EKVX NSCLC
# M14 melanoma = tested on: M14 melanoma
# OVCAR-5 ovarian = tested on: OVCAR-5 ovarian
# ACHN renal = tested on: ACHN renal
# NCI/ADR-RES ovarian = tested on: NCI/ADR-RES ovarian
# T-47D breast = tested on: T-47D breast
# SNB-19 CNS = tested on: SNB-19 CNS
# KM12 colon = tested on: KM12 colon
# MOLT-4 leukemia = tested on: MOLT-4 leukemia
# SK-MEL-28 melanoma = tested on: SK-MEL-28 melanoma
# LOX IMVI melanoma = tested on: LOX IMVI melanoma
# SK-MEL-2 melanoma = tested on: SK-MEL-2 melanoma
# PC-3 prostate = tested on: PC-3 prostate
# A498 renal = tested on: A498 renal
# SK-OV-3 ovarian = tested on: SK-OV-3 ovarian
# MALME-3M melanoma = tested on: MALME-3M melanoma
# UO-31 renal = tested on: UO-31 renal
# RXF 393 renal = tested on: RXF 393 renal
# OVCAR-8 ovarian = tested on: OVCAR-8 ovarian
# SN12C renal = tested on: SN12C renal
# TK-10 renal = tested on: TK-10 renal
# OVCAR-4 ovarian = tested on: OVCAR-4 ovarian
# COLO 205 colon = tested on: COLO 205 colon
# HCC-2998 colon = tested on: HCC-2998 colon
# 786-0 renal = tested on: 786-0 renal
# SR leukemia = tested on: SR leukemia
# RPMI-8226 leukemia = tested on: RPMI-8226 leukemia
# MCF7 breast = tested on: MCF7 breast
# UACC-257 melanoma = tested on: UACC-257 melanoma
# HOP-92 NSCLC = tested on: HOP-92 NSCLC
# NCI-H23 lung = tested on: NCI-H23 lung
# NCI-H522 lung = tested on: NCI-H522 lung
# HS 578T breast = tested on: HS 578T breast
# SW-620 colon = tested on: SW-620 colon
# HOP-62 NSCLC = tested on: HOP-62 NSCLC
# HL-60(TB) leukemia = tested on: HL-60(TB) leukemia
# SF-268 CNS = tested on: SF-268 CNS
# CAKI-1 renal = tested on: CAKI-1 renal
# OVCAR-3 ovarian = tested on: OVCAR-3 ovarian
# IGROV1 ovarian = tested on: IGROV1 ovarian
# NCI-H226 lung = tested on: NCI-H226 lung
# SK-MEL-5 melanoma = tested on: SK-MEL-5 melanoma
# HCT-15 colon = tested on: HCT-15 colon
# BT-549 breast = tested on: BT-549 breast
# MDA-N = tested on: MDA-N
compound,measurement,setting,value
COC(=O)c1cnc(=O)n(C2CC(O)C(CO)O2)c1 (stereo unspecified),GI50,SF-539 CNS,> 100 µM
same,TGI,SF-539 CNS,> 100 µM
same,GI50,K-562 leukemia,> 100 µM
same,TGI,K-562 leukemia,> 100 µM
same,TGI,CCRF-CEM leukemia,> 100 µM
same,GI50,HT29 colon,> 100 µM
same,TGI,HT29 colon,> 100 µM
same,GI50,U251 CNS,> 100 µM
same,TGI,U251 CNS,> 100 µM
same,GI50,A549 NSCLC,> 100 µM
same,TGI,A549 NSCLC,> 100 µM
same,GI50,SNB-75 CNS,> 100 µM
same,TGI,SNB-75 CNS,> 100 µM
same,GI50,MDA-MB-231 breast,> 100 µM
same,TGI,MDA-MB-231 breast,> 100 µM
same,GI50,HCT-116 colon,> 100 µM
same,TGI,HCT-116 colon,> 100 µM
same,GI50,DU-145 prostate,> 100 µM
same,TGI,DU-145 prostate,> 100 µM
same,GI50,SF-295 CNS,> 100 µM
same,TGI,SF-295 CNS,> 100 µM
same,GI50,NCI-H460 lung,> 100 µM
same,TGI,NCI-H460 lung,> 100 µM
same,GI50,MDA-MB-435,> 100 µM
same,TGI,MDA-MB-435,> 100 µM
same,GI50,UACC-62 melanoma,> 100 µM
same,TGI,UACC-62 melanoma,> 100 µM
same,GI50,EKVX NSCLC,> 100 µM
same,TGI,EKVX NSCLC,> 100 µM
same,GI50,M14 melanoma,> 100 µM
same,TGI,M14 melanoma,> 100 µM
same,GI50,OVCAR-5 ovarian,> 100 µM
same,TGI,OVCAR-5 ovarian,> 100 µM
same,GI50,ACHN renal,> 100 µM
same,TGI,ACHN renal,> 100 µM
same,GI50,NCI/ADR-RES ovarian,> 100 µM
same,TGI,NCI/ADR-RES ovarian,> 100 µM
same,GI50,T-47D breast,> 100 µM
same,TGI,T-47D breast,> 100 µM
same,GI50,SNB-19 CNS,> 100 µM
same,TGI,SNB-19 CNS,> 100 µM
same,GI50,KM12 colon,> 100 µM
same,TGI,KM12 colon,> 100 µM
same,GI50,MOLT-4 leukemia,> 100 µM
same,TGI,MOLT-4 leukemia,> 100 µM
same,GI50,SK-MEL-28 melanoma,> 100 µM
same,TGI,SK-MEL-28 melanoma,> 100 µM
same,GI50,LOX IMVI melanoma,> 100 µM
same,TGI,LOX IMVI melanoma,> 100 µM
same,GI50,SK-MEL-2 melanoma,> 100 µM
same,TGI,SK-MEL-2 melanoma,> 100 µM
same,GI50,PC-3 prostate,0.811 µM
same,TGI,PC-3 prostate,> 100 µM
same,GI50,A498 renal,> 100 µM
same,TGI,A498 renal,> 100 µM
same,GI50,SK-OV-3 ovarian,> 100 µM
same,TGI,SK-OV-3 ovarian,> 100 µM
same,GI50,MALME-3M melanoma,> 100 µM
same,TGI,MALME-3M melanoma,> 100 µM
same,GI50,UO-31 renal,> 100 µM
same,TGI,UO-31 renal,> 100 µM
same,GI50,RXF 393 renal,> 100 µM
same,TGI,RXF 393 renal,> 100 µM
same,GI50,OVCAR-8 ovarian,> 100 µM
same,TGI,OVCAR-8 ovarian,> 100 µM
same,GI50,SN12C renal,> 100 µM
same,TGI,SN12C renal,> 100 µM
same,GI50,TK-10 renal,> 100 µM
same,TGI,TK-10 renal,> 100 µM
same,GI50,OVCAR-4 ovarian,> 100 µM
same,TGI,OVCAR-4 ovarian,> 100 µM
same,GI50,COLO 205 colon,> 100 µM
same,TGI,COLO 205 colon,> 100 µM
same,GI50,HCC-2998 colon,> 100 µM
same,TGI,HCC-2998 colon,> 100 µM
same,GI50,786-0 renal,> 100 µM
same,TGI,786-0 renal,> 100 µM
same,GI50,SR leukemia,> 100 µM
same,TGI,SR leukemia,> 100 µM
same,GI50,RPMI-8226 leukemia,1.42 µM
same,TGI,RPMI-8226 leukemia,> 58.5 µM
same,GI50,MCF7 breast,> 100 µM
same,TGI,MCF7 breast,> 100 µM
same,GI50,UACC-257 melanoma,> 100 µM
same,TGI,UACC-257 melanoma,> 100 µM
same,TGI,HOP-92 NSCLC,> 100 µM
same,GI50,NCI-H23 lung,> 100 µM
same,TGI,NCI-H23 lung,> 100 µM
same,GI50,NCI-H522 lung,> 100 µM
same,TGI,NCI-H522 lung,> 100 µM
same,GI50,HS 578T breast,> 100 µM
same,TGI,HS 578T breast,> 100 µM
same,GI50,SW-620 colon,> 100 µM
same,TGI,SW-620 colon,> 100 µM
same,GI50,HOP-62 NSCLC,> 100 µM
same,TGI,HOP-62 NSCLC,> 100 µM
same,GI50,HL-60(TB) leukemia,> 100 µM
same,TGI,HL-60(TB) leukemia,> 100 µM
same,GI50,SF-268 CNS,> 100 µM
same,TGI,SF-268 CNS,> 100 µM
same,GI50,CAKI-1 renal,> 100 µM
same,TGI,CAKI-1 renal,> 100 µM
same,GI50,OVCAR-3 ovarian,> 100 µM
same,TGI,OVCAR-3 ovarian,> 100 µM
same,GI50,IGROV1 ovarian,> 100 µM
same,TGI,IGROV1 ovarian,> 100 µM
same,GI50,NCI-H226 lung,> 100 µM
same,TGI,NCI-H226 lung,> 100 µM
same,GI50,SK-MEL-5 melanoma,> 100 µM
same,TGI,SK-MEL-5 melanoma,> 100 µM
same,GI50,HCT-15 colon,> 100 µM
same,TGI,HCT-15 colon,> 100 µM
same,GI50,BT-549 breast,> 100 µM
same,TGI,BT-549 breast,> 100 µM
CCCCOC(=O)C(=O)C(CC(C(=O)Cc1ccccc1)c1ccccc1)C(=O)C=C(C)C (stereo unspecified),TGI,SF-539 CNS,> 100 µM
same,TGI,CCRF-CEM leukemia,> 100 µM
same,TGI,HT29 colon,> 100 µM
same,TGI,U251 CNS,> 100 µM
same,TGI,A549 NSCLC,> 100 µM
same,TGI,SNB-75 CNS,> 100 µM
same,TGI,MDA-MB-231 breast,> 100 µM
same,TGI,HCT-116 colon,> 100 µM
same,TGI,DU-145 prostate,> 100 µM
same,TGI,SF-295 CNS,> 100 µM
same,TGI,NCI-H460 lung,> 100 µM
same,TGI,MDA-MB-435,> 100 µM
same,TGI,UACC-62 melanoma,> 100 µM
same,TGI,EKVX NSCLC,> 100 µM
same,TGI,M14 melanoma,> 100 µM
same,TGI,OVCAR-5 ovarian,> 100 µM
same,TGI,ACHN renal,> 100 µM
same,TGI,NCI/ADR-RES ovarian,> 100 µM
same,TGI,SNB-19 CNS,> 100 µM
same,TGI,KM12 colon,> 100 µM
same,TGI,MOLT-4 leukemia,> 100 µM
same,TGI,SK-MEL-28 melanoma,> 100 µM
same,TGI,LOX IMVI melanoma,> 100 µM
same,TGI,SK-MEL-2 melanoma,> 100 µM
same,TGI,PC-3 prostate,> 100 µM
same,TGI,SK-OV-3 ovarian,> 100 µM
same,TGI,UO-31 renal,> 100 µM
same,TGI,RXF 393 renal,> 100 µM
same,TGI,OVCAR-8 ovarian,> 100 µM
same,TGI,SN12C renal,> 100 µM
same,TGI,TK-10 renal,> 100 µM
same,TGI,OVCAR-4 ovarian,> 100 µM
same,TGI,COLO 205 colon,> 100 µM
same,TGI,HCC-2998 colon,> 100 µM
same,TGI,786-0 renal,> 100 µM
same,TGI,MCF7 breast,> 100 µM
same,TGI,UACC-257 melanoma,> 100 µM
same,TGI,HOP-92 NSCLC,> 100 µM
same,TGI,MDA-N,> 100 µM
same,TGI,NCI-H23 lung,> 100 µM
same,TGI,NCI-H522 lung,> 100 µM
same,TGI,HS 578T breast,> 100 µM
same,TGI,SW-620 colon,> 100 µM
same,TGI,HOP-62 NSCLC,> 100 µM
same,TGI,HL-60(TB) leukemia,> 100 µM
same,TGI,SF-268 CNS,> 100 µM
same,TGI,CAKI-1 renal,> 100 µM
same,TGI,OVCAR-3 ovarian,> 100 µM
same,TGI,IGROV1 ovarian,> 100 µM
same,TGI,NCI-H226 lung,> 100 µM
same,TGI,SK-MEL-5 melanoma,> 100 µM
same,TGI,HCT-15 colon,> 100 µM
same,TGI,BT-549 breast,> 100 µM
CCN(CC)CCN1CCNc2c3cc(OC)ccc3nc3c([N+](=O)[O-])ccc1c23,TGI,K-562 leukemia,> 10 µM
same,TGI,CCRF-CEM leukemia,2.32 µM
same,TGI,HT29 colon,6.39 µM
same,TGI,A549 NSCLC,9.07 µM
same,TGI,SNB-75 CNS,6.43 µM
same,TGI,MDA-MB-231 breast,2.23 µM
same,TGI,DU-145 prostate,> 10 µM
same,TGI,SF-295 CNS,4.28 µM
same,TGI,MDA-MB-435,2.69 µM
same,TGI,EKVX NSCLC,4.68 µM
same,TGI,T-47D breast,> 10 µM
same,TGI,KM12 colon,6.21 µM
same,TGI,MOLT-4 leukemia,1.42 µM
same,TGI,LOX IMVI melanoma,3.21 µM
same,TGI,PC-3 prostate,2.25 µM
same,TGI,SK-OV-3 ovarian,> 10 µM
same,TGI,MALME-3M melanoma,3.23 µM
same,TGI,RXF 393 renal,2.11 µM
same,TGI,OVCAR-8 ovarian,> 10 µM
same,TGI,SN12C renal,2.36 µM
same,TGI,TK-10 renal,> 10 µM
same,TGI,OVCAR-4 ovarian,3.12 µM
same,TGI,HCC-2998 colon,2.03 µM
same,TGI,786-0 renal,1.61 µM
same,TGI,SR leukemia,1.19 µM
same,TGI,RPMI-8226 leukemia,2.87 µM
same,TGI,MCF7 breast,2.98 µM
same,TGI,UACC-257 melanoma,5.7 µM
same,TGI,HOP-92 NSCLC,6.18 µM
same,TGI,MDA-N,2.27 µM
same,TGI,NCI-H23 lung,2.44 µM
same,TGI,SW-620 colon,5.4 µM
same,TGI,HOP-62 NSCLC,2.64 µM
same,TGI,HL-60(TB) leukemia,2.12 µM
same,TGI,SF-268 CNS,> 10 µM
same,TGI,CAKI-1 renal,> 10 µM
same,TGI,IGROV1 ovarian,9.25 µM
same,TGI,SK-MEL-5 melanoma,2.92 µM
same,TGI,HCT-15 colon,2.47 µM

# Reference: PubChem BioAssay (NCI)
